Experimental data from patent publication US8173643B2, “N-substituted thiomorpholine derivatives as the inhibitors of dipeptidyl peptidase IV and the pharmaceutical uses thereof” (Beijing Molecule Science and Technology Co., Ltd., priority 2007, dated 2012).
Counter-ions that a name gives are not always drawn. Each block holds one molecule with its values, some of them ahead of it.

Tests used:
DPP-IV = target: T1, DPP-IV (Homo sapiens, UniProt P27487); assay: Determination of DPP-IV inhibitory activity and IC50 (enzyme from Caco-2 cell lysate, absorbance at 405 nm); assay type: biochemical; conditions: for inhibition at 0.1 µM: Concentration 100 nM; for inhibition at 0.3 µM: Concentration 300 nM
T1 construct: endogenous in cells; host or cells: Caco-2 (human colon carcinoma), differentiated; NP-40 lysate, 35000 g supernatant
T1 sequence (P27487 whole entry): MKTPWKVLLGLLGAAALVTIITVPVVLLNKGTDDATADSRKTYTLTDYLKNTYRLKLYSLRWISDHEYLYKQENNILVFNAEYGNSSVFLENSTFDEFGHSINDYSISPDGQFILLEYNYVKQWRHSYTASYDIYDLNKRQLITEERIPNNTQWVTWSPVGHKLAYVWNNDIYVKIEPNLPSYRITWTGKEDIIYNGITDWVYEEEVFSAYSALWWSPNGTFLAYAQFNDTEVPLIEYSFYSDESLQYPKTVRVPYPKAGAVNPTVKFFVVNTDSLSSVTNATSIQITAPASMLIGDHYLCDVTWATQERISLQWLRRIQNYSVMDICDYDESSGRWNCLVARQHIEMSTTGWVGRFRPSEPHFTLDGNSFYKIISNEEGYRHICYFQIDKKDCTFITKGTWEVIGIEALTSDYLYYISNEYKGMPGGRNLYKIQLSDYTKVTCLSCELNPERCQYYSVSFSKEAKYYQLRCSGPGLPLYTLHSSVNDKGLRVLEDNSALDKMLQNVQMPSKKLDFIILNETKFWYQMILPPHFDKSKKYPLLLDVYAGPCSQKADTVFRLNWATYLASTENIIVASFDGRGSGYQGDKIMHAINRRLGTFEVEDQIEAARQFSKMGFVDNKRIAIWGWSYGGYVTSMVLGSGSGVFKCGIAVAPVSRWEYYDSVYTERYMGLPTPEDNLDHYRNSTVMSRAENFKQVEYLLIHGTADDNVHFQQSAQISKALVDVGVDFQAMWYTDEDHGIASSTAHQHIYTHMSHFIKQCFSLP
Description: Cultivation of human colon carcinoma cell-line cells (Caco-2): Caco-2 cells were cultivated in a culture medium of DMEM (high glucose, containing 10% fetal bovine serum, 1% NAA), and the cell lines were passaged in a proportion of 1:1 or 1:2; after nearly reaching confluence, the cells were further cultivated for 2-3 weeks, while changing the medium once every 2-3 days.
Preparation of DPP-IV: the cells were washed with a pre-cooled PBS for 2-3 times, and 0.5-1 ml ice-cold 10 mM Tris-HCl (containing 0.15 M NaCl, 0.04 t.i.u aprotinin, 0.5% nonionic detergent P40, pH 8) was added to each culture bottle to lysate the cells, followed by collecting them in a centrifuge tube. After centrifugation at 4° C., 35000 g for […], the obtained supernatant was collected, and subjected to a protein content detection, and then stored in a low temperature refrigerator.
The test groups included enzyme control group, substrate control group, enzyme reaction control group, and compound group, and the test was carried out in a 96-pore plate, using 150 μL reaction system. In the 96-pore plate, a diluted test compound was added in the compound group, 30 μL/pore; 20 μL DPP-IV solution was added in the enzyme control group, as well as in the compound group; an analytic buffer (25 mM Tris-HCl pH 7.4, containing 140 mM NaCl, 10 mM KCl, 1% bovine serum albumin) was added in 130 μL to the enzyme control group, in 125 μL to the substrate control group, in 105 μL to the enzyme reaction control group, and in 75 μL to the compound group; and then 25 μL substrate (1 mM) was added, followed by reacting at room temperature for 10 min. No substrate was added in the enzyme control group. After reacting for 10 min, 25% glacial acetic acid was added in 19 μL/pore to terminate the reaction. The absorbance was determined by using an enzyme calibrating apparatus at a wavelength of 405 nm.

[1] = system: streptozotocin-induced DM male mouse; conditions: 2 times/d, after 7 weeks; cited from earlier work
obese mouse = conditions: 10 mg/kg, 2 times/d, long-term treatment; cited from earlier work
[2] = pig, in vivo, cited from earlier work

- inhibition at 0.01 µM (DPP-IV; Concentration 10 nM, read-out: Inhibitory rate(%)): 7.65 ± 0.68%
- inhibition at 0.03 µM (DPP-IV; Concentration 30 nM, read-out: Inhibitory rate(%)): 13.2 ± 1.92%
- inhibition at 0.1 µM (DPP-IV; read-out: Inhibitory rate(%)): 40.3 ± 3.09%
- inhibition at 0.3 µM (DPP-IV; read-out: Inhibitory rate(%)): 73 ± 1.74%
- inhibition at 1 µM (DPP-IV; Concentration 1000 nM, read-out: Inhibitory rate(%)): 101 ± 1.36%
- IC50 (DPP-IV; DPP-IV from Caco-2 cells): 189 ± 26.4 nM
Molecule: CC(C)[C@@H](N)C(=O)N1CCSC[C@H]1C#N (stereo in doubt) [Compound 1, (R)-3-cyano-4-(2-amino-3-methyl-butyryl)thiomorpholine hydrochloride]

Molecule: CC[C@H](C)[C@H](N)C(=O)N1CCSC1 [P32/98]
- fraction of islet β cells increased, as compared with the control group [1]: 12%
- number of islets increased, as compared with the control group [1]: 35%
- number of overall β cells increased, as compared with the control group [1]: 120%
- plasma insulin level [1]: approaching to normal

Molecule: CC(C)(C)[C@H](N)C(=O)N1CCC[C@H]1C#N [FE 999011]
- postponement of the occurrence of hyperglycemia (obese mouse): 21 days

- inhibition at 0.1 µM (DPP-IV; read-out: Inhibitory rate(%)): 24.1 ± 2.41%
- inhibition at 0.3 µM (DPP-IV; read-out: Inhibitory rate(%)): 47.2 ± 0.64%
Molecule: CC(C)C[C@@H](N)C(=O)N1CCSC[C@H]1C#N [Compound 2, (R)-3-cyano-4-(2-amino-4-methyl-pentanoyl)thiomorpholine hydrochloride]

Molecule: GIP: gastric inhibitory peptide, an incretin secreted by K cells, substrate of DPP-IV
- immunocompetence of intact GIP shown by radioimmunoassay ([2]; iv): 14.5%
- immunocompetence of GIP [2]: 49%
